Laboratory results taken from patent EP0547508A1, “Use of xanthine derivatives for the stabilisation of the auto-regulation of cerebral blood flow” (priority 1991, dated 1993).

Test system: Ratten
Test: Cerebral autoregulation in rats under adrenaline-induced acute hypertension, with or without carotid occlusion (ischaemia/reperfusion)
Format: in vivo
Excerpt: Es werden 36 Ratten unterteilt in drei Gruppen operiert. Die erste Gruppe dient als Kontrolle, d.h. es wird eine akute Hypertonie erzeugt, ohne daß die Carotiden abgeklemmt werden. Die zweite Gruppe wird während der Ischämie und die dritte Gruppe während der Reperfusion mit Adrenalin stimuliert. In jeder Gruppe werden jeweils 6 Tiere mit der Verbindung 1 als Dauerinfusion behandelt.
Bei einem mittleren arteriellen Druck von 170 mmHg wird in der Kontrollgruppe die cerebrale Autoregulation durchbrochen (entsprechend 3 µg/kg Adrenalin (Firma Sigma)). Die dreifache Dosis führt bei einem Blutdruck von 200 mmHg zum Tod der Tiere. Im Gegensatz dazu ist in der mit Verbindung 1 behandelten Gruppe die dreifache Konzentration und ein mittlerer Druck von 180 mmHg erforderlich um an die Grenze der Autoregulation zu kommen. Der Verschluß beider Carotiden führt bei den Tieren, die mit Verbindung 1 behandelt wurden, zu einer höheren Restdurchblutung (25 %) als bei den Kontrolltieren. Während der Reperfusion bleibt die Gehirndurchblutung in der Kontrollgruppe auf dem niedrigen Niveau von 23 %. Die Autoregulation wird bereits bei 150 mmHg durchbrochen (entsprechend 3 µg/kg/Adrenalin). […] Erst bei 180 mmHg kommt es zum Durchbruch der Autoregulation.
Alle Kontrolltiere verstarben nach einer Dosis von 10 µg/kg Adrenalin. Die letale Dosis für mit Verbindung 1 behandelte Tiere liegt bei 30 µg/kg Adrenalin. Zusammenfassend läßt sich feststellen, daß die mit Verbindung 1 behandelten Tiere - im Vergleich mit den Kontrolltieren - höhere Blutdruckspitzen und Blutdruckabsenkungen tolerieren und deren Gehirndurchblutungsautoregulation erst bei der 3-fachen Adrenalinkonzentration durchbrochen wird.

Question: With `CCCn1cnc2c1c(=O)n(CCCCC(C)=O)c(=O)n2C` [Verbindung 1, 1-(5-Oxohexyl)-3-methyl-7-n-propyl-xanthin] as the molecule, how does the “mittlerer Druck erforderlich um an die Grenze der Autoregulation zu kommen” value (acute hypertension by Adrenalin, carotids not clamped, Verbindung 1 as continuous infusion, control group 170 mmHg) read?
Answer: Its value is 180 mmHg.

Question: And the “Adrenalin-Konzentration erforderlich um an die Grenze der Autoregulation zu kommen” value (acute hypertension, carotids not clamped, relative to control group (3 µg/kg Adrenalin))?
Answer: The value was “dreifache”.

Question: And the “Durchbruch der Autoregulation” value (during reperfusion, Adrenalin stimulation, control group 150 mmHg)?
Answer: Its value is 180 mmHg.

Question: What about the Restdurchblutung (occlusion of both carotids (ischaemia), higher than in control animals) of the same molecule?
Answer: The Restdurchblutung was 25%.

Question: What about the “Gehirndurchblutung während der Reperfusion” value (reperfusion after carotid occlusion, control group stays at 23 %) of the same molecule?
Answer: The value was “erreichen sofort wieder das präischämische Ausgangsniveau”.

Question: What about the “Adrenalinkonzentration bei der die Gehirndurchblutungsautoregulation durchbrochen wird” value (summary, fold compared with control animals) of the same molecule?
Answer: Its value is 3.
